Measured values taken from PMC7846792, “Perception of a divergent family of phytocytokines by the Arabidopsis receptor kinase MIK2” (Nature Communications, 2021).
No end group written: not given here.

System: A. thaliana seedlings
Assay: Seedling growth inhibition (fresh weight)
Assay type: in vivo, Arabidopsis thaliana
Conditions: mock mean = 1
Description: Four-day-old seedlings growing on MS plates were transferred individually into separate wells of transparent 48-well tissue culture plates (Greiner Bio-One) containing 500 μL of liquid MS media with/without elicitor addition. The plates were then transferred back to the growth conditions for an additional 10 days before seedlings were blot-dried and weighed.

## PVRSSRSPRSPSF [SCOOP2]
Col-0, 1 μM, replicate 1
  Seedling fresh weight (Fig3C), relative to mock: 1.166
Col-0, 1 μM, replicate 2
  Seedling fresh weight (Fig3C), relative to mock: 0.8827
Col-0, 1 μM, replicate 3
  Seedling fresh weight (Fig3C), relative to mock: 1.02
Col-0, 1 μM, replicate 4
  Seedling fresh weight (Fig3C), relative to mock: 1.184
Col-0, 1 μM, replicate 5
  Seedling fresh weight (Fig3C), relative to mock: 0.971
Col-0, 1 μM, replicate 6
  Seedling fresh weight (Fig3C), relative to mock: 0.6909
Col-0, 1 μM, replicate 7
  Seedling fresh weight (Fig3C), relative to mock: 0.9497
Col-0, 1 μM, replicate 8
  Seedling fresh weight (Fig3C), relative to mock: 0.9771
Col-0, 1 μM, replicate 9
  Seedling fresh weight (Fig3C), relative to mock: 0.9071
Col-0, 1 μM, replicate 10
  Seedling fresh weight (Fig3C), relative to mock: 0.9253
Col-0, 1 μM, replicate 11
  Seedling fresh weight (Fig3C), relative to mock: 0.8736
Col-0, 1 μM, replicate 12
  Seedling fresh weight (Fig3C), relative to mock: 0.9892
Col-0, 10 μM, replicate 1
  Seedling fresh weight (Fig3C), relative to mock: 0.6187
Col-0, 10 μM, replicate 2
  Seedling fresh weight (Fig3C), relative to mock: 0.9067
Col-0, 10 μM, replicate 3
  Seedling fresh weight (Fig3C), relative to mock: 0.8218
Col-0, 10 μM, replicate 4
  Seedling fresh weight (Fig3C), relative to mock: 0.6399
Col-0, 10 μM, replicate 5
  Seedling fresh weight (Fig3C), relative to mock: 0.5307
Col-0, 10 μM, replicate 6
  Seedling fresh weight (Fig3C), relative to mock: 0.5914
Col-0, 10 μM, replicate 7
  Seedling fresh weight (Fig3C), relative to mock: 0.649
Col-0, 10 μM, replicate 8
  Seedling fresh weight (Fig3C), relative to mock: 0.6005
Col-0, 10 μM, replicate 9
  Seedling fresh weight (Fig3C), relative to mock: 0.5337
Col-0, 10 μM, replicate 10
  Seedling fresh weight (Fig3C), relative to mock: 0.555
Col-0, 10 μM, replicate 11
  Seedling fresh weight (Fig3C), relative to mock: 0.7005
Col-0, 10 μM, replicate 12
  Seedling fresh weight (Fig3C), relative to mock: 0.6793
mik2-1, 1 μM, replicate 1
  Seedling fresh weight (Fig3C), relative to mock: 0.8038
mik2-1, 1 μM, replicate 2
  Seedling fresh weight (Fig3C), relative to mock: 0.7937
mik2-1, 1 μM, replicate 3
  Seedling fresh weight (Fig3C), relative to mock: 1.093
mik2-1, 1 μM, replicate 4
  Seedling fresh weight (Fig3C), relative to mock: 1.0157
mik2-1, 1 μM, replicate 5
  Seedling fresh weight (Fig3C), relative to mock: 1.096
mik2-1, 1 μM, replicate 6
  Seedling fresh weight (Fig3C), relative to mock: 0.8812
mik2-1, 1 μM, replicate 7
  Seedling fresh weight (Fig3C), relative to mock: 0.972
mik2-1, 1 μM, replicate 8
  Seedling fresh weight (Fig3C), relative to mock: 0.898
mik2-1, 1 μM, replicate 9
  Seedling fresh weight (Fig3C), relative to mock: 1.0157
mik2-1, 1 μM, replicate 10
  Seedling fresh weight (Fig3C), relative to mock: 1.002
mik2-1, 1 μM, replicate 11
  Seedling fresh weight (Fig3C), relative to mock: 1.083
mik2-1, 1 μM, replicate 12
  Seedling fresh weight (Fig3C), relative to mock: 1.063
mik2-1, 10 μM, replicate 1
  Seedling fresh weight (Fig3C), relative to mock: 1.068
mik2-1, 10 μM, replicate 2
  Seedling fresh weight (Fig3C), relative to mock: 1.011
mik2-1, 10 μM, replicate 3
  Seedling fresh weight (Fig3C), relative to mock: 0.7743
mik2-1, 10 μM, replicate 4
  Seedling fresh weight (Fig3C), relative to mock: 0.9434
mik2-1, 10 μM, replicate 5
  Seedling fresh weight (Fig3C), relative to mock: 0.8859
mik2-1, 10 μM, replicate 6
  Seedling fresh weight (Fig3C), relative to mock: 0.8014
mik2-1, 10 μM, replicate 7
  Seedling fresh weight (Fig3C), relative to mock: 1.0279
mik2-1, 10 μM, replicate 8
  Seedling fresh weight (Fig3C), relative to mock: 1.092
mik2-1, 10 μM, replicate 9
  Seedling fresh weight (Fig3C), relative to mock: 1.001
mik2-1, 10 μM, replicate 10
  Seedling fresh weight (Fig3C), relative to mock: 0.9772
mik2-1, 10 μM, replicate 11
  Seedling fresh weight (Fig3C), relative to mock: 1.058
mik2-1, 10 μM, replicate 12
  Seedling fresh weight (Fig3C), relative to mock: 1.106

## RAGPSKSGQGGGR [SCOOP7]
Col-0, 1 μM, replicate 1
  Seedling fresh weight (Fig3C), relative to mock: 0.0761
Col-0, 1 μM, replicate 2
  Seedling fresh weight (Fig3C), relative to mock: 0.03653
Col-0, 1 μM, replicate 3
  Seedling fresh weight (Fig3C), relative to mock: 0.1644
Col-0, 1 μM, replicate 4
  Seedling fresh weight (Fig3C), relative to mock: 0.1522
Col-0, 1 μM, replicate 5
  Seedling fresh weight (Fig3C), relative to mock: 0.1644
Col-0, 1 μM, replicate 6
  Seedling fresh weight (Fig3C), relative to mock: 0.01826
Col-0, 1 μM, replicate 7
  Seedling fresh weight (Fig3C), relative to mock: 0.0761
Col-0, 1 μM, replicate 8
  Seedling fresh weight (Fig3C), relative to mock: 0.07914
Col-0, 1 μM, replicate 9
  Seedling fresh weight (Fig3C), relative to mock: 0.09436
Col-0, 1 μM, replicate 10
  Seedling fresh weight (Fig3C), relative to mock: 0.08523
Col-0, 1 μM, replicate 11
  Seedling fresh weight (Fig3C), relative to mock: 0.1218
Col-0, 1 μM, replicate 12
  Seedling fresh weight (Fig3C), relative to mock: 0.1035
Col-0, 10 μM, replicate 1
  Seedling fresh weight (Fig3C), relative to mock: 0.009098
Col-0, 10 μM, replicate 2
  Seedling fresh weight (Fig3C), relative to mock: 0.006065
Col-0, 10 μM, replicate 3
  Seedling fresh weight (Fig3C), relative to mock: 0.003033
Col-0, 10 μM, replicate 4
  Seedling fresh weight (Fig3C), relative to mock: 0.009098
Col-0, 10 μM, replicate 5
  Seedling fresh weight (Fig3C), relative to mock: 0.01213
Col-0, 10 μM, replicate 6
  Seedling fresh weight (Fig3C), relative to mock: 0.009098
Col-0, 10 μM, replicate 7
  Seedling fresh weight (Fig3C), relative to mock: 0.01213
Col-0, 10 μM, replicate 8
  Seedling fresh weight (Fig3C), relative to mock: 0.009098
Col-0, 10 μM, replicate 9
  Seedling fresh weight (Fig3C), relative to mock: 0.01213
Col-0, 10 μM, replicate 10
  Seedling fresh weight (Fig3C), relative to mock: 0.009098
Col-0, 10 μM, replicate 11
  Seedling fresh weight (Fig3C), relative to mock: 0.01516
Col-0, 10 μM, replicate 12
  Seedling fresh weight (Fig3C), relative to mock: 0.006065
mik2-1, 1 μM, replicate 1
  Seedling fresh weight (Fig3C), relative to mock: 1.0796
mik2-1, 1 μM, replicate 2
  Seedling fresh weight (Fig3C), relative to mock: 1.12
mik2-1, 1 μM, replicate 3
  Seedling fresh weight (Fig3C), relative to mock: 1.033
mik2-1, 1 μM, replicate 4
  Seedling fresh weight (Fig3C), relative to mock: 0.9787
mik2-1, 1 μM, replicate 5
  Seedling fresh weight (Fig3C), relative to mock: 1.006
mik2-1, 1 μM, replicate 6
  Seedling fresh weight (Fig3C), relative to mock: 0.861
mik2-1, 1 μM, replicate 7
  Seedling fresh weight (Fig3C), relative to mock: 0.9955
mik2-1, 1 μM, replicate 8
  Seedling fresh weight (Fig3C), relative to mock: 0.9652
mik2-1, 1 μM, replicate 9
  Seedling fresh weight (Fig3C), relative to mock: 0.9047
mik2-1, 1 μM, replicate 10
  Seedling fresh weight (Fig3C), relative to mock: 1.0157
mik2-1, 1 μM, replicate 11
  Seedling fresh weight (Fig3C), relative to mock: 1.049
mik2-1, 1 μM, replicate 12
  Seedling fresh weight (Fig3C), relative to mock: 0.9518
mik2-1, 10 μM, replicate 1
  Seedling fresh weight (Fig3C), relative to mock: 1.014
mik2-1, 10 μM, replicate 2
  Seedling fresh weight (Fig3C), relative to mock: 0.9772
mik2-1, 10 μM, replicate 3
  Seedling fresh weight (Fig3C), relative to mock: 0.9332
mik2-1, 10 μM, replicate 4
  Seedling fresh weight (Fig3C), relative to mock: 0.9062
mik2-1, 10 μM, replicate 5
  Seedling fresh weight (Fig3C), relative to mock: 1.001
mik2-1, 10 μM, replicate 6
  Seedling fresh weight (Fig3C), relative to mock: 0.94
mik2-1, 10 μM, replicate 7
  Seedling fresh weight (Fig3C), relative to mock: 1.035
mik2-1, 10 μM, replicate 8
  Seedling fresh weight (Fig3C), relative to mock: 1.085
mik2-1, 10 μM, replicate 9
  Seedling fresh weight (Fig3C), relative to mock: 1.062
mik2-1, 10 μM, replicate 10
  Seedling fresh weight (Fig3C), relative to mock: 0.9197
mik2-1, 10 μM, replicate 11
  Seedling fresh weight (Fig3C), relative to mock: 0.9569
mik2-1, 10 μM, replicate 12
  Seedling fresh weight (Fig3C), relative to mock: 0.9028
